Results from patent US9133184B2, “Chromen-2-one derivatives and their use as monoamine neurotransmitter re-uptake inhibitors” (ANIONA APS, priority 2010, dated 2015).
Counter-ions that a name gives are not always drawn.

Tests used:
Format in all cases: biochemical
[1] = tested on: serotonine (5-HT) reuptake in synaptosomes; experiment: Inhibition of 5-HT reuptake in synaptosomes; conditions: 3H-5-HT, read-out: 5-HT-uptake IC50
Method: (§1) Compounds were tested for their ability to inhibit the reuptake of the monoamine neurotransmitters dopamine (DA) noradrenaline (NA) and serotonine (5-HT) in synaptosomes as described in WO 97/16451 (NeuroSearch A/S).
(§2) The test values are given as IC50 (the concentration (μM) of the test substance which inhibits the specific binding of ^3H-DA, ^3H-NA, or ^3H-5-HT by 50%).

[2] = tested on: dopamine (DA) reuptake in synaptosomes; experiment: Inhibition of DA reuptake in synaptosomes; conditions: 3H-DA, read-out: DA-uptake IC50
Method: as §1, §2

[3] = tested on: noradrenaline (NA) reuptake in synaptosomes; experiment: Inhibition of NA reuptake in synaptosomes; conditions: 3H-NA, read-out: NA-uptake IC50
Method: as §1, §2

- IC50 [1]: 2.9 nM
- IC50 [2]: 70 nM
- IC50 [3]: 3.8 nM
SMILES: COc1cc2ccc(O[C@@H]3C[C@H]4CC[C@@H](C3)N4)cc2oc1=O [Compound 1.1, Exo-7-[(-8-azabicyclo[3.2.1]octan-3-yl)oxy]-3-methoxy-chromen-2-one hydrochloride]
